PubChem BioAssay AID1963868 (Molecular Pharmacology Branch, DTP, NCI, 2024)

Tested on: KRAS PDC tumor spheroids (HUVEC+MSC), viability
Experiment: Anticancer human tumor 254851-301-R-J1-PDC patient-derived colon carcinoma cell line growth inhibition [KRAS2]
Conditions: for viability, T/C: stronger effect = lower value
Procedure, shortened: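 KRAS-mutant tumor cells were grown as spheroids with HUVEC endothelial cells and human MSCs as stroma. Targeted agents were tested alone and with KRAS pathway inhibitors. Doses started at or near clinical Cmax, or 10 microM, descending half-log.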

[1] = curve of first compound, second compound 0.1 µM
[2] = curve of first compound, second compound 0.316 µM
[3] = curve of first compound, second compound 1 µM
[4] = curve of first compound, second compound 3.16 µM
[5] = curve of first compound, second compound 10 µM
[6] = second compound 0.1 µM, first compound 0.000316 µM
[7] = second compound 0.1 µM, first compound 0.001 µM
[8] = second compound 0.1 µM, first compound 0.00316 µM
[9] = second compound 0.1 µM, first compound 0.01 µM
[10] = second compound 0.1 µM, first compound 0.0316 µM
[11] = second compound 0.1 µM, first compound 0.1 µM
[12] = second compound 0.316 µM, first compound 0.000316 µM
[13] = second compound 0.316 µM, first compound 0.001 µM
[14] = second compound 0.316 µM, first compound 0.00316 µM
[15] = second compound 0.316 µM, first compound 0.01 µM
[16] = second compound 0.316 µM, first compound 0.0316 µM
[17] = second compound 0.316 µM, first compound 0.1 µM
[18] = second compound 1 µM, first compound 0.000316 µM
[19] = second compound 1 µM, first compound 0.001 µM
[20] = second compound 1 µM, first compound 0.00316 µM
[21] = second compound 1 µM, first compound 0.01 µM
[22] = second compound 1 µM, first compound 0.0316 µM
[23] = second compound 1 µM, first compound 0.1 µM
[24] = second compound 3.16 µM, first compound 0.000316 µM
[25] = second compound 3.16 µM, first compound 0.001 µM
[26] = second compound 3.16 µM, first compound 0.00316 µM
[27] = second compound 3.16 µM, first compound 0.01 µM
[28] = second compound 3.16 µM, first compound 0.0316 µM
[29] = second compound 3.16 µM, first compound 0.1 µM
[30] = second compound 10 µM, first compound 0.000316 µM
[31] = second compound 10 µM, first compound 0.001 µM
[32] = second compound 10 µM, first compound 0.00316 µM
[33] = second compound 10 µM, first compound 0.01 µM
[34] = second compound 10 µM, first compound 0.0316 µM
[35] = second compound 10 µM, first compound 0.1 µM
[36] = curve of first compound, second compound 0.0316 µM
[37] = second compound 0.0316 µM, first compound 0.00316 µM
[38] = second compound 0.0316 µM, first compound 0.01 µM
[39] = second compound 0.0316 µM, first compound 0.0316 µM
[40] = second compound 0.0316 µM, first compound 0.1 µM
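Further: spheroids exposed to compounds for seven days before readout.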
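Wherever viability, T/C is given: 100% = DMSO vehicle control luminescence of the spheroids.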

Structure (SMILES)	IC50 [1]	IC50 [2]	IC50 [3]	IC50 [4]	viability, T/C [8]	viability, T/C [9]	viability, T/C [10]	viability, T/C [11]	viability, T/C [14]	viability, T/C [15]	viability, T/C [16]	viability, T/C [17]	viability, T/C [20]	viability, T/C [21]	viability, T/C [22]	viability, T/C [23]	viability, T/C [26]	viability, T/C [27]	viability, T/C [28]	viability, T/C [29]	also measured
Cn1ncnc1[C@H]1c2n[nH]c(=O)c3cc(F)cc(c23)N[C@@H]1c1ccc(F)cc1 + CC1OCC2(CCN(c3cnc(Sc4ccnc(N)c4Cl)c(N)n3)CC2)C1N	> 100 nM	> 100 nM	> 100 nM	> 100 nM	100%	98%	101%	98.9%	79%	78.8%	78.3%	90.6%	75.1%	83.6%	83.9%	80.9%	70.5%	74.5%	76.9%	74.1%	IC50 [5]: > 100 nM; viability, T/C [6]: 98%; viability, T/C [7]: 102%; viability, T/C [12]: 89.5%; viability, T/C [13]: 93.8%; viability, T/C [18]: 82.4%; viability, T/C [19]: 85.2%; viability, T/C [24]: 75.1%; viability, T/C [25]: 77.4%; viability, T/C [30]: 68.5%; viability, T/C [31]: 67.7%; viability, T/C [32]: 63.7%; viability, T/C [33]: 57.1%; viability, T/C [34]: 67.1%; viability, T/C [35]: 57.2%
CC(C)n1nc(-c2ccc3oc(N)nc3c2)c2c(N)ncnc21 + C=CC(=O)N1CCN(c2nc(OCC3CCCN3C)nc3c2CCN(c2cccc4cccc(C)c24)C3)CC1CC#N	23.2 nM	15.3 nM	14.1 nM	2.27 nM	90.6%	68.1%	45.2%	22.3%	101%	61%	31.6%	23.6%	83%	58.8%	34.6%	23.1%	56.7%	23.9%	29.2%	12.6%	IC50 [36]: 15.3 nM; viability, T/C (second compound 0.0316 µM, first compound 0.000316 µM): 118%; viability, T/C (second compound 0.0316 µM, first compound 0.001 µM): 109%; viability, T/C [37]: 87.6%; viability, T/C [38]: 63.1%; viability, T/C [39]: 30.1%; viability, T/C [40]: 21.1%; viability, T/C [6]: 113%; viability, T/C [7]: 115%; viability, T/C [12]: 111%; viability, T/C [13]: 115%; viability, T/C [18]: 108%; viability, T/C [19]: 118%; viability, T/C [24]: 86%; viability, T/C [25]: 52.7%
C=CC(=O)N1CCN(c2nc(=O)n(-c3c(C)ccnc3C(C)C)c3nc(-c4c(O)cccc4F)c(F)cc23)C(C)C1 (centres undefined)																					viability, T/C (compound 0.1 µM): 100% [middle of 17 runs]; IC50 (compound alone, run of 07/12/2021): > 10000 nM; IC50 (compound alone, run of 07/19/2021): > 10000 nM; IC50 (compound alone, run of 07/26/2021): > 10000 nM
CCN1CCN(Cc2ccc(Nc3ncc(F)c(-c4cc(F)c5nc(C)n(C(C)C)c5c4)n3)nc2)CC1 + C=CC(=O)N1CCN(c2nc(OCC3CCCN3C)nc3c2CCN(c2cccc4cccc(C)c24)C3)CC1CC#N	645 nM	600 nM	131 nM	55.3 nM	98.9%	95.5%	83.3%	71.5%	98%	87.6%	94.2%	77%	59.5%	63.2%	57.5%	49.7%	65.6%	56.8%	52.5%	43.4%	IC50 [36]: 605 nM; viability, T/C [37]: 102%; viability, T/C [38]: 97.3%; viability, T/C [39]: 90.8%; viability, T/C [40]: 78.1%; viability, T/C (second compound 0.0316 µM, first compound 0.316 µM): 64.4%; viability, T/C (second compound 0.0316 µM, first compound 1 µM): 39.2%; viability, T/C (second compound 0.1 µM, first compound 0.316 µM): 66.2%; viability, T/C (second compound 0.1 µM, first compound 1 µM): 40.6%; viability, T/C (second compound 0.316 µM, first compound 0.316 µM): 60.5%; viability, T/C (second compound 0.316 µM, first compound 1 µM): 42%; viability, T/C (second compound 1 µM, first compound 0.316 µM): 44.5%; viability, T/C (second compound 1 µM, first compound 1 µM): 34.6%; viability, T/C (second compound 3.16 µM, first compound 0.316 µM): 40.1%; viability, T/C (second compound 3.16 µM, first compound 1 µM): 16%
Cn1ncnc1[C@H]1c2n[nH]c(=O)c3cc(F)cc(c23)N[C@@H]1c1ccc(F)cc1 + CNCc1ccccc1-c1csc(C(C)Nc2nc(C)nc3cc(OC)c(OC)cc23)c1	> 100 nM	> 100 nM	> 100 nM	> 100 nM	92.4%	96.9%	95.6%	93.6%	98.8%	85.4%	94.5%	92.5%	93.9%	84%	86.9%	95.2%	64.3%	63.7%	67.9%	63.6%	IC50 [5]: < 0.316 nM; viability, T/C [6]: 94.9%; viability, T/C [7]: 90.7%; viability, T/C [12]: 90.6%; viability, T/C [13]: 95.6%; viability, T/C [18]: 101%; viability, T/C [19]: 97.8%; viability, T/C [24]: 66.3%; viability, T/C [25]: 65%; viability, T/C [30]: 0.23%; viability, T/C [31]: 0.23%; viability, T/C [32]: 0.25%; viability, T/C [33]: 0.21%; viability, T/C [34]: 0.22%; viability, T/C [35]: 0.23%
